Test results: ChEMBL document CHEMBL1201862, “PubChem BioAssay data set” (2004)
Calls of active or inactive are those of the source.

Key:
[1] = molecular target: DNA dC->dU-editing enzyme APOBEC-3G (Homo sapiens, UniProt Q9HC16); assay: Dose Response confirmation of small molecule APOBEC3G DNA Deaminase Inhibitors via a fluorescence-based single-stranded DNA deaminase assay. [Related pubchem assays (depositor defined):AID493012, AID493028]; assay type: functional
[2] = molecular target: DNA dC->dU-editing enzyme APOBEC-3A (Homo sapiens, UniProt P31941); assay: APOBEC3A DNA deaminase inhibitors, dose response, biochemical (AID 504722); assay type: functional
[3] = molecular target: Melanin-concentrating hormone receptor 1 (Homo sapiens, UniProt Q99705); assay: Late-stage fluorescence-based counterscreen for antagonists of the G-protein coupled receptor 7 (GPR7): cell-based dose response assay to identify antagonists of the melanin-concentrating hormone receptor 1 (MCHR1). [Related pubchem assays (depositor defined):AID1861, AID1880, AID1952, AID2148, AID2251, AID2257, AID485339]; assay type: functional;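 also: stimulated with 30 nM MCH peptide agonist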
[4] = molecular target: Transitional endoplasmic reticulum ATPase (Homo sapiens, UniProt P55072, C522A); assay: C522A mutant p97 ATPase inhibitors, dose response, counter-screen for p97 inhibitor project, biochemical, luminescence (AID 1544)
[5] = molecular target: Transitional endoplasmic reticulum ATPase (Homo sapiens, UniProt P55072); assay: p97 ATPase inhibitors, dose response, biochemical (AID 1534)
[6] = test system: HeLa; assay: Cytotoxicity counterscreen assay for transcriptional activators of heat shock protein 70 (Hsp70). [Related pubchem assays: 1203, 1252 ]; assay type: functional; conditions: Homo sapiens;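 also: cells exposed to compound for 16 hours before readout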
[7] = molecular target: Eukaryotic translation initiation factor 4E (Mus musculus, UniProt P63073); assay: eIF4E–eIF4G protein interaction inhibitors, dose response, biochemical, TR-FRET (AID 855); assay type: functional;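 also: potency for disrupting eIF4E binding to eIF4GI seen as loss of FRET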
[8] = molecular target: T1, Rac GTPase-activating protein 1 (Homo sapiens, UniProt Q9H0H5); assay: MgcRacGAP GTPase-activating activity inhibitors, confirmation, biochemical, ADP Hunter fluorescence, primary and confirmatory (AID 624330); assay type: functional
T1 sequence (Q9H0H5 whole entry): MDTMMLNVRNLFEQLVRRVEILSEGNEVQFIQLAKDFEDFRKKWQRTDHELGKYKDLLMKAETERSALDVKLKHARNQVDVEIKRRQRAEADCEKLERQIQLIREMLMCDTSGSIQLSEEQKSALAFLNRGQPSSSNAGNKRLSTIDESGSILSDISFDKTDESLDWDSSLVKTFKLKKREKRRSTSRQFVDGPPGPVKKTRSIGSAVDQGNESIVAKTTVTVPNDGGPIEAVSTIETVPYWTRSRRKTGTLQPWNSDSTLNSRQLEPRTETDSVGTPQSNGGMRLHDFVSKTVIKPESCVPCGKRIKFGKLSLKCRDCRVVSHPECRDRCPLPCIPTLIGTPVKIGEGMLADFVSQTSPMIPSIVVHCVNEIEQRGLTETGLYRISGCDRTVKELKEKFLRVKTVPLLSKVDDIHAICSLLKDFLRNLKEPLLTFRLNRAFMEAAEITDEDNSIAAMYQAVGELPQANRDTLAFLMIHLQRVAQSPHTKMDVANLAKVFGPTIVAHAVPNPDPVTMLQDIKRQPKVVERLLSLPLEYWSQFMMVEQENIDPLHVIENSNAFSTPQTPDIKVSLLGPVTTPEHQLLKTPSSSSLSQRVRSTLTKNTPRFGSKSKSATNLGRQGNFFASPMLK

[9] = test system: HEK293; assay: cells; assay type: functional, cell-based; conditions: Homo sapiens
[10] = test system: Streptococcus sp. 'group A'; assay: growth inhibition of control SK(-) GAS strain, dose response, counter-screen for streptokinase expression inhibitor project, luminescence, kanamycin, BacTiterGlo, confirmation (AID 1900); assay type: functional, organism-based
[11] = test system: HEK293; assay: cells; assay type: functional, cell-based; conditions: Homo sapiens; remark: listed apart in the source
[12] = molecular target: T2, Nucleotide-binding oligomerization domain-containing protein 2 (Homo sapiens, UniProt Q9HC29); assay: NOD2 signaling inhibitors, cell-based, luminescence, uHTS, HEK293 (AID 1566); assay type: functional
[13] = test system: HEK293; assay: NOD2 signaling inhibitors in MDP-stimulated cells, cell-based, uHTS, luminescence (AID 2001); assay type: functional; conditions: Homo sapiens
[14] = test system: HEK293; assay: NOD1 signaling inhibitors, primary screen, cell-based, luminescence, uHTS (AID 1578); assay type: functional; conditions: Homo sapiens
[15] = test system: Streptococcus; assay: Group A Streptococcus viability loss, dose response, counter-screen for streptokinase expression inhibitor project, luminescence, BacTiterGlo (AID 1915); assay type: functional, organism-based;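 also: potency for reduction of bacterial viability or growth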
[16] = test system: HEK293; assay: cells; conditions: Homo sapiens
[17] = molecular target: T3, Nucleotide-binding oligomerization domain-containing protein 1 (Homo sapiens, UniProt Q9Y239); assay: NOD1 signaling inhibitors, SAR follow-up, revised (AID 2333); assay type: functional
T3 sequence (Q9Y239 whole entry): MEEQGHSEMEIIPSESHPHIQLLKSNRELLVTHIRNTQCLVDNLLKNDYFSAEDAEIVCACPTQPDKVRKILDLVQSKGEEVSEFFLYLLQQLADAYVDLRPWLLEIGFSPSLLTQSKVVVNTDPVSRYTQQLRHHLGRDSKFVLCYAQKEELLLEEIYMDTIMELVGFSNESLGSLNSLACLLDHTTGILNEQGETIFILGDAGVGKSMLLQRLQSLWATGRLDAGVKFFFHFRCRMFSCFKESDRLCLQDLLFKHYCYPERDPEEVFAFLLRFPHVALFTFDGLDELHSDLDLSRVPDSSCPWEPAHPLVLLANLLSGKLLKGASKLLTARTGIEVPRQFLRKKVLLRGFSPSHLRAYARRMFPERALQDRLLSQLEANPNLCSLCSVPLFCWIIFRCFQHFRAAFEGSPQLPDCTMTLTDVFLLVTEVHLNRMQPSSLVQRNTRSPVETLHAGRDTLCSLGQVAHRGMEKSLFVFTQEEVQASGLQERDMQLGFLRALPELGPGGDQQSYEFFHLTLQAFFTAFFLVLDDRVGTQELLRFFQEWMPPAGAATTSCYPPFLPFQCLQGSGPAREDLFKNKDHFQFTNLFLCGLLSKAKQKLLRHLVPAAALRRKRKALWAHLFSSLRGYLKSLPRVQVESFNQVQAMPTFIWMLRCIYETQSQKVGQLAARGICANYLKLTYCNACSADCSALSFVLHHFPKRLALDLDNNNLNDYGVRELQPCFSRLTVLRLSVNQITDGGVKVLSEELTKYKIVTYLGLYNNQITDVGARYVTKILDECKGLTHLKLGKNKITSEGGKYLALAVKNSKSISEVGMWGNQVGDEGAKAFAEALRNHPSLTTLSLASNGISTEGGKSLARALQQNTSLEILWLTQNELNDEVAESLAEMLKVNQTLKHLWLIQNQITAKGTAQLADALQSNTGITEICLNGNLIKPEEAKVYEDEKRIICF

[18] = molecular target: T2, Nucleotide-binding oligomerization domain-containing protein 2; assay: PubChem AID 2334; assay type: functional
[19] = molecular target: Tumor necrosis factor (Homo sapiens, UniProt P01375); assay: TNFa-triggered NF-kB activation inhibitors, SAR follow-up, cell-based, revised (AID 2337); assay type: functional
[20] = test system: HEK293; assay: cells; assay type: functional, cell-based; conditions: Homo sapiens; remark: listed apart in the source
[21] = molecular target: G-protein coupled receptor 55 (Homo sapiens, UniProt Q9Y2T6); assay: GPR55 agonists via beta-arrestin recruitment, primary screen, imaging, U2OS cells, beta-arrestin-GFP redistribution (AID 1961); assay type: functional
[22] = molecular target: Paired box protein Pax-8 (Homo sapiens, UniProt Q06710); assay: inhibitors of PAX8-driven TPO luciferase reporter, dose response, RMG-I cells, cherry-pick (AID 687027); assay type: functional, cell-based;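 also: luciferase reporter driven by Pax8 target thyroperoxidase promoter measured by SteadyGlo luminescence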
Paired box protein Pax-8, sequence (Q06710 whole entry): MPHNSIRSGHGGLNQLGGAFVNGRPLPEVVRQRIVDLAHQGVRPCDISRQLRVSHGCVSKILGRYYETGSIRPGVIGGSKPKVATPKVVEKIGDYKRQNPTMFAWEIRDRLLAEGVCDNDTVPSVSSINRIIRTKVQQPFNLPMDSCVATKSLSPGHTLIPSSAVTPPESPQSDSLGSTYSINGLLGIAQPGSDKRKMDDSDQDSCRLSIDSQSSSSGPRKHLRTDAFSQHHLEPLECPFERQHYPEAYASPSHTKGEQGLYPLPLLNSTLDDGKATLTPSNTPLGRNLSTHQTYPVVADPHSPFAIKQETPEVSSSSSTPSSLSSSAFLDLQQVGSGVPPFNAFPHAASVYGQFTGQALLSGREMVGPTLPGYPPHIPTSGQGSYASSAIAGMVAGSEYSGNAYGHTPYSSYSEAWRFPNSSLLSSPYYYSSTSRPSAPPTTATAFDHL

T2 sequence (Q9HC29 whole entry, the tested form may be a part): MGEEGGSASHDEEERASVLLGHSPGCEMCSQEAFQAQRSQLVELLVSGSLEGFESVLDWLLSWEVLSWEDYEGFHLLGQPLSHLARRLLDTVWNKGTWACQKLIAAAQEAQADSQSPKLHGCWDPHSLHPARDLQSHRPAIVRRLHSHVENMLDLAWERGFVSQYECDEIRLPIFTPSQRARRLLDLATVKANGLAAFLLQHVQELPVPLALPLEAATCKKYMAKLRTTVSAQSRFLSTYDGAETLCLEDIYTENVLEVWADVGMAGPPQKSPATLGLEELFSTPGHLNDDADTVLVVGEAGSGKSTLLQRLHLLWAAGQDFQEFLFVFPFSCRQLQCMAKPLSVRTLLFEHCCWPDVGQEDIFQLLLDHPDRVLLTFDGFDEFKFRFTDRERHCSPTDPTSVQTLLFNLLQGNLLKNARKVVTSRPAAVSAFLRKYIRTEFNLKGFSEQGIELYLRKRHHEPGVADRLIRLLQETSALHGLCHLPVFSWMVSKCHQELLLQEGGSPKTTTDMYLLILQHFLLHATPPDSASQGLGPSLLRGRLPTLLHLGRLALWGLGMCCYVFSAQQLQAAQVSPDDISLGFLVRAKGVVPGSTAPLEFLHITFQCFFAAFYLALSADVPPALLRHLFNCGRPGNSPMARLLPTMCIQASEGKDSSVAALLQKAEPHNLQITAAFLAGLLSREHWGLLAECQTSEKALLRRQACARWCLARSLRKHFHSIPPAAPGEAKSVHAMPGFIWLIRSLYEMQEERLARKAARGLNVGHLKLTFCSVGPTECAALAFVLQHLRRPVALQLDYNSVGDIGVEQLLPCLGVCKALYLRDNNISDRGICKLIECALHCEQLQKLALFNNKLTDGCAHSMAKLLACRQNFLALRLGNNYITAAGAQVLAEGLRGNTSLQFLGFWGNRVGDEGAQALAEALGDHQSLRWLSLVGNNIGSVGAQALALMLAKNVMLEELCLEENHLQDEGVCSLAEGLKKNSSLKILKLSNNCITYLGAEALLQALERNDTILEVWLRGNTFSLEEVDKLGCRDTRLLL
Transitional endoplasmic reticulum ATPase (Homo sapiens, UniProt P55072, C522A), sequence (P55072 2-806 C522A limits assumed): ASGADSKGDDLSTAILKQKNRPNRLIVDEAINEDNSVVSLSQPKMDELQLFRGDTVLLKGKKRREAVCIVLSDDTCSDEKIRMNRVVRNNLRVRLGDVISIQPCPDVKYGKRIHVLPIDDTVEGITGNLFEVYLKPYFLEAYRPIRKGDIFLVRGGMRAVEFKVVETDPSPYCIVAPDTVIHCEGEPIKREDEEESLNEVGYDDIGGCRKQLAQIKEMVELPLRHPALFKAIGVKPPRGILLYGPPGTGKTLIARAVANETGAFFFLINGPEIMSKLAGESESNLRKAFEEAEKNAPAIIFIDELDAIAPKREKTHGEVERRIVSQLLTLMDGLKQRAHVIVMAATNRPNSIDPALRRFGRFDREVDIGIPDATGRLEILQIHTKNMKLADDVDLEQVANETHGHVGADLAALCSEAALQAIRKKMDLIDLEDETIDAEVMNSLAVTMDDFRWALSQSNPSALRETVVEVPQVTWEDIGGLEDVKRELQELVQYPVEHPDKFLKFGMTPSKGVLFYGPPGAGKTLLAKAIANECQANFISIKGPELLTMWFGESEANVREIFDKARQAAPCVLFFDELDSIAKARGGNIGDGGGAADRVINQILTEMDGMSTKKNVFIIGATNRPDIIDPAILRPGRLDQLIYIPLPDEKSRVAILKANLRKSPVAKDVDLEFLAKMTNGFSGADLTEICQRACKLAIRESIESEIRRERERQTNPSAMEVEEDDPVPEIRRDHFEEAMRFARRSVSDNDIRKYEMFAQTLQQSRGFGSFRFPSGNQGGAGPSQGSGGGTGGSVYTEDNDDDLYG
Eukaryotic translation initiation factor 4E, sequence (P63073 whole entry): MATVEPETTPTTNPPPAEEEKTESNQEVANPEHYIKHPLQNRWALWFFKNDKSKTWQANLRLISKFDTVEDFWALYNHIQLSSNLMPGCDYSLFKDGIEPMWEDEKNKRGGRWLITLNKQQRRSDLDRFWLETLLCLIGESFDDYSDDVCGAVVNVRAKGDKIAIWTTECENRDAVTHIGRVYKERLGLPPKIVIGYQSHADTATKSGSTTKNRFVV
Melanin-concentrating hormone receptor 1, sequence (Q99705 whole entry): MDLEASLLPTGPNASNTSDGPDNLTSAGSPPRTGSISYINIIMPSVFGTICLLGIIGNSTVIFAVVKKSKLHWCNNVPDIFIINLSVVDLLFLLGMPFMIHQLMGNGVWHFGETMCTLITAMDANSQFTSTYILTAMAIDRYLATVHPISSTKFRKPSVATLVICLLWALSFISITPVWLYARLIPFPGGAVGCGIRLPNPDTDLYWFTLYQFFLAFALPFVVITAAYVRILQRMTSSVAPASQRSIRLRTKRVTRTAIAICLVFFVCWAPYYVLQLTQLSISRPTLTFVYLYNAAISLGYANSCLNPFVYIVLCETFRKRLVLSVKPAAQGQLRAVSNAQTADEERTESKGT
DNA dC->dU-editing enzyme APOBEC-3G, sequence (Q9HC16 whole entry): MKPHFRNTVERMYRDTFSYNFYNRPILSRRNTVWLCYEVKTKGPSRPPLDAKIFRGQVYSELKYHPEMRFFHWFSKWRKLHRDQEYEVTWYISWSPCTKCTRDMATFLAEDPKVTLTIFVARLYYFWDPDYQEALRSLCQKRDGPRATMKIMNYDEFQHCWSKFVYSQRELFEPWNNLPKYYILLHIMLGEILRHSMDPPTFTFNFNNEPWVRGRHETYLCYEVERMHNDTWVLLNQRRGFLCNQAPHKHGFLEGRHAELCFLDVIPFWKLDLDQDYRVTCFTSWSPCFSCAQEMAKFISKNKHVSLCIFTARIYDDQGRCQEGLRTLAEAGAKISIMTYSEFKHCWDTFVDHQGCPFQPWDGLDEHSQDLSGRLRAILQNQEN
G-protein coupled receptor 55, sequence (Q9Y2T6 whole entry): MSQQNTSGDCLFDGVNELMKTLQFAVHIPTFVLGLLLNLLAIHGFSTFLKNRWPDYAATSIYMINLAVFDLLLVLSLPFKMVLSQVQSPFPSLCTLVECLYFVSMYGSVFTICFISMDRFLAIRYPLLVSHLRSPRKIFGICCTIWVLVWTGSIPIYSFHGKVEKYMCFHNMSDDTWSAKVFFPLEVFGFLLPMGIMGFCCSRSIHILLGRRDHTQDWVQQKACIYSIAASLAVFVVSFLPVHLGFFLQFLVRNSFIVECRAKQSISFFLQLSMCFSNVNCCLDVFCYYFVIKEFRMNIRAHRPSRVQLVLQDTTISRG
Tumor necrosis factor, sequence (P01375 whole entry): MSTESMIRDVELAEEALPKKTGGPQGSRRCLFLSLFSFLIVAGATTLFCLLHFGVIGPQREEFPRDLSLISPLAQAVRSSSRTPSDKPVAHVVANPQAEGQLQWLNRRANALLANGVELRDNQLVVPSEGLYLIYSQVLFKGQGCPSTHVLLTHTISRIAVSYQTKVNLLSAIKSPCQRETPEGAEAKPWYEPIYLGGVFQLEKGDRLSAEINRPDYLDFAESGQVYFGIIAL
DNA dC->dU-editing enzyme APOBEC-3A, sequence (P31941 whole entry): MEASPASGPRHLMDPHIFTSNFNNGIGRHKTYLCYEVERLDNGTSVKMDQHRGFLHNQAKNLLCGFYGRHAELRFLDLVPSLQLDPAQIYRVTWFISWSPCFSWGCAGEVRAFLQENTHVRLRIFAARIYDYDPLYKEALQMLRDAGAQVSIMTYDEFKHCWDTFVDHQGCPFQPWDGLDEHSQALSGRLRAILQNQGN
Transitional endoplasmic reticulum ATPase (Homo sapiens, UniProt P55072), sequence (P55072 whole entry): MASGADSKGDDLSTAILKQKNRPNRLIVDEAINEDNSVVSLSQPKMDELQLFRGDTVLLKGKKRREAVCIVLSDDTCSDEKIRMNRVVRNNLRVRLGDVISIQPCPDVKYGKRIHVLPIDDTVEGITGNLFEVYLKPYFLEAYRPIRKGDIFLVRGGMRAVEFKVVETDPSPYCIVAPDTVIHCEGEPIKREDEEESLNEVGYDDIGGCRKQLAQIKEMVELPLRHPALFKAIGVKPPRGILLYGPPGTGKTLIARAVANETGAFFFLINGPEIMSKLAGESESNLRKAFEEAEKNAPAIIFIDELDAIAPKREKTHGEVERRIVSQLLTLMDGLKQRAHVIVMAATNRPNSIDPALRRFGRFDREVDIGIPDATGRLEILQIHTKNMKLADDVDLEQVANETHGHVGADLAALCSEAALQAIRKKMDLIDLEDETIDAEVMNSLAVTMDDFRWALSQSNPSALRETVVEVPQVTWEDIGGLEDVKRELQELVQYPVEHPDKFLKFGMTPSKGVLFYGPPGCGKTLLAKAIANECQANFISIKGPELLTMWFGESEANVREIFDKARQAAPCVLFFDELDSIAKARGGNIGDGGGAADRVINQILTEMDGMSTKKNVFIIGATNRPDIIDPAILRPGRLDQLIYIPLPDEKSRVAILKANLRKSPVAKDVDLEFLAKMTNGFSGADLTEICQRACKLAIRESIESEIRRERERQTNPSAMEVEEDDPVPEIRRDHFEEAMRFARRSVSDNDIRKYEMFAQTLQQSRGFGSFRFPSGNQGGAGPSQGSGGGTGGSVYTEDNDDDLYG

**Q.** Which IC50 [1] does the source give for `Sc1nnc(-c2ccco2)n1-c1ccc(Br)cc1` here?
**A.** 1.5 µM (active)

**Q.** And the IC50 [2]?
**A.** > 100 µM (inactive)

**Q.** `COc1ccc(Oc2c(CO)cnn(-c3ccc(C(C)C)cc3)c2=O)cc1` was tested. Which IC50 [3] did it give?
**A.** 7.4 µM (active)

**Q.** With `Cc1no[n+]([O-])c1COc1ccccc1/C=C1\NC(=S)NC1=O` as the molecule, how does the IC50 [4] read?
**A.** > 50 µM (not active)

**Q.** And the IC50 [5]?
**A.** > 50 µM (not active)

**Q.** How did the CC50 [6] turn out when `CCOC(=O)c1sc2nc(C)nc(Nc3ccccc3)c2c1C` was run?
**A.** > 99 µM (not active)

**Q.** Which IC50 [7] does the source give for `O=C(C1CCN(Cc2cc(Cl)ccc2O)CC1)N1CCN(Cc2ccccc2)CC1` here?
**A.** > 64 µM (inactive)

**Q.** What about the IC50 [8] of the same molecule?
**A.** 81 µM (active)

**Q.** How did the IC50 [9] turn out when `Cc1cc(NC(=O)c2ccc(C)s2)n(-c2nc3ccccc3[nH]2)n1` was run?
**A.** > 20 µM (inactive)

**Q.** What about the EC50 [10] of the same molecule?
**A.** 3.04 µM (active)

**Q.** What about the IC50 [11] of the same molecule?
**A.** > 20 µM (inactive)

**Q.** What about the EC50 [12] of the same molecule?
**A.** > 20 µM (inactive)

**Q.** What about the IC50 [13] of the same molecule?
**A.** 4.57 µM (inactive)

**Q.** And the EC50 [14]?
**A.** 4.06 µM (active)

**Q.** And the EC50 [15]?
**A.** 5.48 µM (active)

**Q.** And the IC50 [16]?
**A.** > 20 µM (inactive)

**Q.** What about the IC50 [17] of the same molecule?
**A.** > 20 µM (inactive)

**Q.** And the IC50 [18]?
**A.** > 20 µM (inactive)

**Q.** And the IC50 [19]?
**A.** > 20 µM (inactive)

**Q.** What about the IC50 [20] of the same molecule?
**A.** > 20 µM (inactive)

**Q.** For `CCCN(CCC)Cc1c(C(=O)N/N=C/C(C)=C\c2ccco2)nnn1-c1nonc1N`, which EC50 [21] is on record?
**A.** 0.625 µM (active)

**Q.** What about the AC50 [22] of the same molecule?
**A.** 2.86 µM (active)
